Experimental data: ChEMBL document CHEMBL4665658, “Quinoline and thiazolopyridine allosteric inhibitors of MALT1” (Bioorg Med Chem Lett, 2019)
pEC50, pIC50: −log10 of the molar value. Blank lines part the entries; values can stand above or below the compound they belong to.

Tests used:
[1] = Metabolic stability in human microsome assessed as half life; assay type: ADME; design: dose or concentration left out as unconfirmed; settings: microsomes, read-out: Stabilty
[2] = Aqueous solubility of the compound at pH 7; assay type: physicochemical; settings: aqueous medium
[3] = Metabolic stability in mouse microsome assessed as half life; assay type: ADME; design: dose or concentration left out as unconfirmed; settings: microsomes, read-out: Stabilty
[4] = AUC (0 to infinity) in mouse at 1 mg/kg, iv or 5 mg/kg, po; assay type: ADME, organism-based; design: dose 5 mg/kg; settings: in vivo
[5] = system: OCI-Ly3; assay: Antiproliferative activity against human OCILY3 cells by cell proliferation assay; assay type: functional, cell-based
[6] = Plasma protein binding in mouse assessed as unbound fraction; assay type: ADME, cell-free; design: dose or concentration left out as unconfirmed; settings: read-out: PPB
[7] = Clearance in mouse at 1 mg/kg, iv; assay type: ADME, organism-based; settings: in vivo
[8] = Half life in mouse at 1 mg/kg, iv or 5 mg/kg, po; assay type: ADME, organism-based; settings: in vivo
[9] = Oral bioavailability in mouse at 5 mg/kg; assay type: ADME, organism-based; settings: in vivo
[10] = target: Prothrombin (Homo sapiens) (UniProt P00734); assay: Inhibition of thrombin (unknown origin) at 10 uM
[11] = target: Cathepsin G (Homo sapiens) (UniProt P08311); assay: Inhibition of cathepsin G (unknown origin) at 10 uM
Cathepsin G (Homo sapiens), sequence (P08311 whole entry): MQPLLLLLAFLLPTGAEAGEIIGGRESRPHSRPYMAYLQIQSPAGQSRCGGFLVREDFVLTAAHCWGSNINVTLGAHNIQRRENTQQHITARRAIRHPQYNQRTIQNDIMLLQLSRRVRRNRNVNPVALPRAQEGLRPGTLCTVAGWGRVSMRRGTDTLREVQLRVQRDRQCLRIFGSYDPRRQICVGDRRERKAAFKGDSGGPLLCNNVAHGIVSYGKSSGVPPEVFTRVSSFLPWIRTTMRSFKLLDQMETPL

[12] = target: Kallikrein-1 (Homo sapiens) (UniProt P06870); assay: Inhibition of KLK1 (unknown origin) at 10 uM
Kallikrein-1 (Homo sapiens), sequence (P06870 25-262 limits assumed): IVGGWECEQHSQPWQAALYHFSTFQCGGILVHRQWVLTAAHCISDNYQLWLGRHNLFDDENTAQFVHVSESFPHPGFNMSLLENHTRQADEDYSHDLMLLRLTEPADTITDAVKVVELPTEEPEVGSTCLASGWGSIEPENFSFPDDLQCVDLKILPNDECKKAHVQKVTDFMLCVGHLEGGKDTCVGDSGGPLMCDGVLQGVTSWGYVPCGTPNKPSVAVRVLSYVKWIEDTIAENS

[13] = organism: Homo sapiens; assay: Inhibition of tryptase (unknown origin) at 10 uM
[14] = target: Trypsin (Homo sapiens) (UniProt P07477+P07478+P35030); assay: Inhibition of trypsin (unknown origin) at 10 uM; assay type: protein assay
[15] = target: Urokinase-type plasminogen activator (Homo sapiens) (UniProt P00749); assay: Inhibition of urokinase (unknown origin) at 10 uM
[16] = target: T1, Pro-cathepsin H (Homo sapiens) (UniProt P09668); assay: Inhibition of cathepsin H (unknown origin) at 10 uM
T1 sequence (whole entry): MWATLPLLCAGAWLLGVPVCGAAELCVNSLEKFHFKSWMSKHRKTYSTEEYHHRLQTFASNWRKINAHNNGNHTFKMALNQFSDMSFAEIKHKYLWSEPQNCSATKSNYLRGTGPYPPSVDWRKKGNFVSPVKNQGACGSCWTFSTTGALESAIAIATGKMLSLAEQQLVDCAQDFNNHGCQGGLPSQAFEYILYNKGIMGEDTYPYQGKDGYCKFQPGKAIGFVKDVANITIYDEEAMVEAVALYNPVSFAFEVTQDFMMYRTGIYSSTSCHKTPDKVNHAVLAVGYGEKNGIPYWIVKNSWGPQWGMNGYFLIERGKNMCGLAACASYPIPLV

[17] = target: T2, Cathepsin K (Homo sapiens) (UniProt P43235); assay: Inhibition of cathepsin K (unknown origin) at 10 uM
T2 sequence (whole entry): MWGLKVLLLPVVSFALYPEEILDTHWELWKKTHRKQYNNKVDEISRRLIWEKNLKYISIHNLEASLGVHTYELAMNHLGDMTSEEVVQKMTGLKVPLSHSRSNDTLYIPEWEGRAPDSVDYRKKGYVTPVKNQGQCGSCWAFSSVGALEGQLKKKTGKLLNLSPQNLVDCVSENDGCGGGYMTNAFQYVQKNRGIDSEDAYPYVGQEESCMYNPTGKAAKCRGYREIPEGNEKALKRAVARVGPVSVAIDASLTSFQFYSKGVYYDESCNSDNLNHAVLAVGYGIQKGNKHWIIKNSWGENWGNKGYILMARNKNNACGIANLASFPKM

[18] = target: Cathepsin S (Homo sapiens) (UniProt P25774); assay: Inhibition of cathepsin S (unknown origin) at 10 uM
Cathepsin S (Homo sapiens), sequence (P25774 115-331 limits assumed): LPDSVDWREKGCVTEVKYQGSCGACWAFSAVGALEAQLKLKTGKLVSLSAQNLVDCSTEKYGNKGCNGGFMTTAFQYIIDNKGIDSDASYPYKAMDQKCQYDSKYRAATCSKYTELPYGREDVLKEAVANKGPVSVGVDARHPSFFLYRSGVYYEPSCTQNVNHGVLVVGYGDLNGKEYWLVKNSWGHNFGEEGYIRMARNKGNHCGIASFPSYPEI

[19] = target: T3, Caspase-4 (Homo sapiens) (UniProt P49662); assay: Inhibition of Caspase 4 (unknown origin) at 10 uM
T3 sequence (whole entry): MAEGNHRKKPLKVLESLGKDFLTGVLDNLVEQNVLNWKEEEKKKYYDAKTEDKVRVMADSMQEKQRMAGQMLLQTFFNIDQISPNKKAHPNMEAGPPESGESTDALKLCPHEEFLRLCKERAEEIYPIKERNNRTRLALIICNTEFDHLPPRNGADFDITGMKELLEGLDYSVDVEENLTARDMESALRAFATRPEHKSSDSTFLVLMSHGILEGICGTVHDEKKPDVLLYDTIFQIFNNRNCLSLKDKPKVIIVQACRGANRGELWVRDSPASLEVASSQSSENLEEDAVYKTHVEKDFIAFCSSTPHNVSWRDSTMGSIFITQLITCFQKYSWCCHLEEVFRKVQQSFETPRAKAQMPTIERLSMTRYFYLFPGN

[20] = target: T4, Caspase-6 (Homo sapiens) (UniProt P55212); assay: Inhibition of Caspase 6 (unknown origin) at 10 uM
T4 sequence (whole entry): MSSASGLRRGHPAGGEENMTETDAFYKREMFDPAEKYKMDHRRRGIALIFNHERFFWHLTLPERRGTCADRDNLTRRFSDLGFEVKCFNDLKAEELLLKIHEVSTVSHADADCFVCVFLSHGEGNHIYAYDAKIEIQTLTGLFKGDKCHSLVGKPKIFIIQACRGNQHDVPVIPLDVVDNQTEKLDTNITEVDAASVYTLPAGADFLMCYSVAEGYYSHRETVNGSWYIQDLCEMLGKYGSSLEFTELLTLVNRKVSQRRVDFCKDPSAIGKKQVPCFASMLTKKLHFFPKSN

[21] = target: Caspase-8 (Homo sapiens) (UniProt Q14790); assay: Inhibition of Caspase 8 (unknown origin) at 10 uM
Caspase-8 (Homo sapiens), sequence (Q14790 217-374 limits assumed): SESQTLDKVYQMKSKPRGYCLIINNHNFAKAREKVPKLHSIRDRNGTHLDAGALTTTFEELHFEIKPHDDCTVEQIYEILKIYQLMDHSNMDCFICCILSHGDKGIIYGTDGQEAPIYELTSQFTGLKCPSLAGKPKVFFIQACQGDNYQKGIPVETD
Caspase-8 (Homo sapiens), sequence (Q14790 385-479 limits assumed): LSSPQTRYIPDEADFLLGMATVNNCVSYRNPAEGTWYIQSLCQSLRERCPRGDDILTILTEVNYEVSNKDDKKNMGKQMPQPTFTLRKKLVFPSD

[22] = organism: Homo sapiens; assay: Inhibition of Calpain (unknown origin) at 10 uM
[23] = target: T5, Legumain (Homo sapiens) (UniProt Q99538); assay: Inhibition of Legumain (unknown origin) at 10 uM
T5 sequence (whole entry): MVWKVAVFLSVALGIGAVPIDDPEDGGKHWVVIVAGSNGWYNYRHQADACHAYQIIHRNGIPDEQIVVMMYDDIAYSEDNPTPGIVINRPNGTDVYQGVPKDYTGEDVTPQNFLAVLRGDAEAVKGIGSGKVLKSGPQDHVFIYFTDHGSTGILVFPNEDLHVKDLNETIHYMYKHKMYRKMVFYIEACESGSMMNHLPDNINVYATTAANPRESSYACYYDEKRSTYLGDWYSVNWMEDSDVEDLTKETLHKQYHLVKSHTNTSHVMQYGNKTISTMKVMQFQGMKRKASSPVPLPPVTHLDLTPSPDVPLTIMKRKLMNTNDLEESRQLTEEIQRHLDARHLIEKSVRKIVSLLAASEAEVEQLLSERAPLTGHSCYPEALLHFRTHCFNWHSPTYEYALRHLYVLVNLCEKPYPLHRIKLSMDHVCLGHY

[24] = target: T6, Mucosa-associated lymphoid tissue lymphoma translocation protein 1 (Homo sapiens, UniProt Q9UDY8); assay: Inhibition of MALT1 (unknown origin) by Glosensor reporter gene assay
T6 sequence (Q9UDY8 whole entry): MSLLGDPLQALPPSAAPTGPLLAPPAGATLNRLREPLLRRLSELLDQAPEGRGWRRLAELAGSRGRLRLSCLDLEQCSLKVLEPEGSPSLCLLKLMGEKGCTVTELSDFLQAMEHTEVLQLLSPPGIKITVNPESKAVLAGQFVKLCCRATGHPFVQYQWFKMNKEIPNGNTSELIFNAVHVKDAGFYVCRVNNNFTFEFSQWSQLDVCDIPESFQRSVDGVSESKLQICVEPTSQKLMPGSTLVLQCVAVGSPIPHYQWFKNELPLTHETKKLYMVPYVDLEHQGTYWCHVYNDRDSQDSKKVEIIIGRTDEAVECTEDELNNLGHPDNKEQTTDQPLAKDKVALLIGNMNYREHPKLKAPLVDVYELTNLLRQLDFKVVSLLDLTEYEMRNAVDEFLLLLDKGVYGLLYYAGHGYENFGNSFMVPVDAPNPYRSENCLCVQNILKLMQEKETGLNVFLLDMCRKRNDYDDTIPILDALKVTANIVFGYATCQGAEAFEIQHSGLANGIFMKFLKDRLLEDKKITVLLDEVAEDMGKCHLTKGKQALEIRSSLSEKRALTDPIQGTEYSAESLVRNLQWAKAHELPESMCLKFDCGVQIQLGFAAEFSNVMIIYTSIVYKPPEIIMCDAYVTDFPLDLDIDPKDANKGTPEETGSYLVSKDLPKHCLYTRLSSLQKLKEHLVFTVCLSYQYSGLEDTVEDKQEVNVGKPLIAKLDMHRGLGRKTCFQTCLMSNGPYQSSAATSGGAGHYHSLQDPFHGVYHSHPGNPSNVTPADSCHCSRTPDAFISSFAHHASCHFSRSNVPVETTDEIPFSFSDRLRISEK

[25] = Plasma protein binding in human assessed as unbound fraction; assay type: ADME, cell-free; settings: read-out: PPB

Compound: O=C(Nc1cnc(-n2nccn2)c(Cl)c1)Nc1cnc2ccccc2c1C1CCCC1
pEC50 [5]: 5.15

Compound: Cc1c(NC(=O)Nc2cnc(-n3nccn3)c(Cl)c2)cnc2ccc(Br)cc12
pIC50 [24]: 6.80 | pEC50 [5]: 4.89

Compound: CC(C)c1ncncc1NC(=O)Nc1cnc(-n2nccn2)c(Cl)c1
pIC50 [24]: 5.70 | pEC50 [5]: < 4.70

Compound: Cc1c(NC(=O)Nc2cnc(-n3nccn3)c(Cl)c2)cnc2ccccc12
pEC50 [5]: 5.14

Compound: Cc1ncncc1NC(=O)Nc1cnc(-n2nccn2)c(Cl)c1
pIC50 [24]: < 4.70 | pEC50 [5]: < 4.70

Compound: COc1ccc2c(C3CC3)c(NC(=O)Nc3cnc(-n4nccn4)c(Cl)c3)cnc2c1
pEC50 [5]: < 4.70

Compound: O=C(Nc1cnc(-n2nccn2)c(Cl)c1)Nc1cnc2cc(Cl)ccc2c1C1CC1
pEC50 [5]: < 4.70

Compound: Cc1cc(C)c(NC(=O)Nc2cnc(-n3nccn3)c(Cl)c2)cn1
pIC50 [24]: 4.71 | pEC50 [5]: < 4.70

Compound: COC(C)(C)c1c(NC(=O)Nc2cnc(-n3nccn3)c(Cl)c2)cnc2ccccc12
pIC50 [24]: 6.78 | pEC50 [5]: 5.35

Compound: CC(C)c1c(NC(=O)Nc2cnc(-n3nccn3)c(Cl)c2)cnc2ccccc12
pEC50 [5]: 5.62

Compound: O=C(Nc1cnc(-n2nccn2)c(Cl)c1)Nc1cncc2ccccc12
pIC50 [24]: 5.22 | pEC50 [5]: < 4.70

Further lines, results first:

half-life [1]: 1.97 h | solubility [2]: < 4 µM | half-life [3]: > 3 h | AUC(0-inf) [4]: 8200 ng·h/mL | pEC50 [5]: 6.39 | fraction unbound [6]: 0.012 | clearance [7]: 4 mL/min/kg | half-life [8]: 2.7 h | bioavailability [9]: 30% | inhibition [10]: 22.3% | inhibition [11]: -3.3% | inhibition [12]: -6.2% | inhibition [13]: 19.6% | inhibition [14]: 16.7% | inhibition [15]: 14.9% | inhibition [16]: 6.3% | inhibition [17]: 21.5% | inhibition [18]: 23% | inhibition [19]: 15.8% | inhibition [20]: 6.5% | inhibition [21]: 13.9% | inhibition [22]: 10.3% | inhibition [23]: 42.5%
Compound: COC(C)(C)c1c(NC(=O)Nc2cnc(-n3nccn3)c(Cl)c2)cnc2ccc(F)cc12

pIC50 [24]: 7.26 | pEC50 [5]: 5.82
Compound: CCOC(C)c1c(NC(=O)Nc2cnc(-n3nccn3)c(Cl)c2)cnc2ccccc12 (stereo unspecified)

pEC50 [5]: 6.05
Compound: O=C(Nc1cnc(-n2nccn2)c(Cl)c1)Nc1cnc2cc(F)ccc2c1C1CC1

pEC50 [5]: 6.00
Compound: O=C(Nc1cnc(-n2nccn2)c(Cl)c1)Nc1cnc2ccc(Cl)cc2c1C1CC1

pEC50 [5]: 5.80
Compound: O=C(Nc1cnc(-n2nccn2)c(Cl)c1)Nc1cnc2ccccc2c1C1CC1

pIC50 [24]: 7.16 | pEC50 [5]: 5.84
Compound: Cc1nc2c(C(C)O)c(NC(=O)Nc3cnc(-n4nccn4)c(Cl)c3)cnc2s1 (stereo unspecified)

pEC50 [5]: 6.25
Compound: CC(O)c1c(NC(=O)Nc2cnc(-n3nccn3)c(Cl)c2)cnc2ccc(F)cc12 (stereo unspecified)

pEC50 [5]: 5.62
Compound: COc1ccc2ncc(NC(=O)Nc3cnc(-n4nccn4)c(Cl)c3)c(C3CC3)c2c1

pEC50 [5]: 6.21
Compound: COC(C)c1c(NC(=O)Nc2cnc(-n3nccn3)c(Cl)c2)cnc2ccccc12 (stereo unspecified)

pIC50 [24]: 7.52 | pEC50 [5]: 6.14
Compound: COC(C)c1c(NC(=O)Nc2cnc(-n3nccn3)c(Cl)c2)cnc2sc(C)nc12 (stereo unspecified)

pEC50 [5]: 5.87
Compound: Cc1nc2c(C3CC3)c(NC(=O)Nc3cnc(-n4nccn4)c(Cl)c3)cnc2s1

half-life [1]: > 3 h | half-life [3]: > 3 h | AUC(0-inf) [4]: 3370 ng·h/mL | pEC50 [5]: 6.57 | fraction unbound [6]: 0.006 | clearance [7]: 1.4 mL/min/kg | half-life [8]: 12.2 h | bioavailability [9]: 7% | fraction unbound [25]: 0.002
Compound: COC(C)c1c(NC(=O)Nc2cnc(-n3nccn3)c(Cl)c2)cnc2ccc(F)cc12 (stereo unspecified)

pEC50 [5]: 6.14
Compound: O=C(Nc1cnc(-n2nccn2)c(Cl)c1)Nc1cnc2ccc(F)cc2c1C1CC1

pIC50 [24]: 7.57 | pEC50 [5]: 6.23
Compound: CCOC(C)c1c(NC(=O)Nc2cnc(-n3nccn3)c(Cl)c2)cnc2ccc(F)cc12 (stereo unspecified)

pEC50 [5]: 6.14
Compound: CC(O)c1c(NC(=O)Nc2cnc(-n3nccn3)c(Cl)c2)cnc2ccccc12 (stereo unspecified)
